Source: patent US10301308B2, “Azetidine derivatives for tau imaging” (Eli Lilly and Company, priority 2015, dated 2019)

Columns and labels:
[1] = molecular target: PHF (tau from Alzheimer's disease donors) (Homo sapiens, UniProt P10636); test: Saturation binding of radiolabeled compound to PHF (Kd determination); details: tau obtained from donors with Alzheimer's disease
Excerpt: Purified, soluble PHF is isolated from AD brain tissue using a protocol modified from the procedure described by Jicha, et al. (G. A. Jicha, A. O'Donnell, C. Weaver (1999) “Hierarchical phosphorylation of recombinant tau by the paired-helical filament-associated protein kinase is dependent on cyclic AMP-dependent protein kinase” J Neurochem. 72(1):214). Briefly, AD cortex is homogenized using a handheld Kinematica Polytron, followed by high pressure batch—gas expansion using a Parr Cell disruption bomb. Crude homogenate is centrifuged at 28 kg to pellet cell debris. […]
The dissociation constant [Kd] for the radiolabeled compound 3-(3-[18F]-fluoroazetidin-1-yl)-8-methylbenzo[4,5]imidazol[1,2-a]pyridine is determined by saturation binding, in which the total and nonspecific binding of the radioligand are measured at various radioligand concentrations. […] After incubation for 1.5 h at 37° C., the bound radioactivity is harvested by vacuum filtration onto Millipore MultiScreenHTS 96-well glass fiber FB filter plates, using a Millipore MultiScreenHTS Vacuum Manifold, followed by five washes with PBS. Filters containing bound 3-(3-[18F]-fluoroazetidin-1-yl)-8-methylbenzo[4,5]imidazo[1,2-a]pyridine are assayed for radioactivity in a Wizard 2480 automatic gamma-counter [Perkin Elmer]. […]

tau protein = test: Clinical PET imaging of tau protein in the brain (SUVr); assay type: in vivo, human
Description: Clinical evaluation of 3-(3-[18F]-Fluoroazetidin-1-yl)-8-methylbenzo[4,5]imidazo[1,2-a]pyridine (Compound 8) as a PET radioligand for imaging tau protein deposition in patients with AD or other neurodegenerative disorders is conducted in healthy volunteers. AD patients, or Chronic Traumatic Encephalopathy (CTE) subjects, by completion of one or more PET scans with Compound 8. Dynamic PET imaging is acquired on a Siemens ECAT EXACT HR+ over 150 minutes following Compound 8 or [18F]AV-1451 injection (0-60 and 90-150 minute imaging segments). Compound 8 or [18F]AV-1451 scans are acquired similarly in two imaging sessions. A brain MRI is also obtained. PET and MRI images are aligned and normalized, and ATLAS-based volumes of interest (VOI) are applied to the dynamic PET series. Compound 8 or [18F]AV-1451 are evaluated in terms of kinetic profile as well as target region to cerebellum standardized uptake value ratio (SUVr between 100-120 min) between healthy volunteers and AD or CTE subjects.

PHF (tau from Alzheimer's disease donors), sequence (P10636 623-708 limits assumed): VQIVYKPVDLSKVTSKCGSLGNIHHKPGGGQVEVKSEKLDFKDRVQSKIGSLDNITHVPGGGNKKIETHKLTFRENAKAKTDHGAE

Q: Which Kd [1] does the source give for Cc1ccc2nc3cc(N4CC([18F])C4)ccn3c2c1 [Compound 8, 3-(3-[18F]-fluoroazetidin-1-yl)-8-methylbenzo[4,5]imidazo[1,2-a]pyridine] here?
A: The Kd was 850 ± 20 pM.

Q: What about the “SUVr values compared to [18F]AV-1451” value (tau protein; AD subjects) of the same molecule?
A: Its value is “slightly higher SUVr values compared to [18F]AV-1451”.

Q: And the “mean SUVr averaged over all regions” value (tau protein; AD subjects)?
A: Its value is roughly 1.6.

Q: What about the “uptake in cortical brain regions, AD subjects compared with healthy controls” value (tau protein; AD subjects vs healthy controls) of the same molecule?
A: Its value is “Higher uptake”.

Q: And the “SUVr in other cortical regions” value (tau protein; CTE subject)?
A: The value was roughly 1.0.

Q: And the “SUVr in focal sub-regions with high uptake” value (tau protein; CTE subject, sub-regions of inferior lateral parietal, superior parietal and posterior temporal cortex)?
A: Its value is roughly 1.5.

Q: And the “mean SUVr averaged over all regions” value (tau protein; healthy volunteer subjects)?
A: Its value is roughly 1.1.

Q: And the “SUVr in cortical regions” value (tau protein; healthy volunteer subjects, target region to cerebellum)?
A: The value was 1.0-1.1.
